What was measured:
Heat shock protein HSP90 [1] = molecular target: T1, Heat shock protein HSP90 (Homo sapiens, UniProt P07900+P08238); assay: Degradation of Her2 in SKBR3 cells; assay type: functional, cell-based; settings: sk-br-3
Heat shock protein HSP90 [2] = molecular target: T1, Heat shock protein HSP90; assay: Inhibition of BODIPY-AG binding to human HSP90; assay type: protein assay
Heat shock protein HSP90 [3] = molecular target: T1, Heat shock protein HSP90; assay: Degradation of Her2 in SKOV3 cells; assay type: functional, cell-based; settings: sk-ov-3
SK-BR-3 = assay: Inhibition of human SKBR3 cell growth; assay type: functional
SK-OV-3 = assay: Inhibition of human SKOV3 cell growth; assay type: functional
Endoplasmin = Endoplasmin (Canis lupus familiaris, UniProt P41148); assay: Inhibition of BODIPY-AG binding to dog Grp94
Endoplasmin, sequence (P41148 whole entry): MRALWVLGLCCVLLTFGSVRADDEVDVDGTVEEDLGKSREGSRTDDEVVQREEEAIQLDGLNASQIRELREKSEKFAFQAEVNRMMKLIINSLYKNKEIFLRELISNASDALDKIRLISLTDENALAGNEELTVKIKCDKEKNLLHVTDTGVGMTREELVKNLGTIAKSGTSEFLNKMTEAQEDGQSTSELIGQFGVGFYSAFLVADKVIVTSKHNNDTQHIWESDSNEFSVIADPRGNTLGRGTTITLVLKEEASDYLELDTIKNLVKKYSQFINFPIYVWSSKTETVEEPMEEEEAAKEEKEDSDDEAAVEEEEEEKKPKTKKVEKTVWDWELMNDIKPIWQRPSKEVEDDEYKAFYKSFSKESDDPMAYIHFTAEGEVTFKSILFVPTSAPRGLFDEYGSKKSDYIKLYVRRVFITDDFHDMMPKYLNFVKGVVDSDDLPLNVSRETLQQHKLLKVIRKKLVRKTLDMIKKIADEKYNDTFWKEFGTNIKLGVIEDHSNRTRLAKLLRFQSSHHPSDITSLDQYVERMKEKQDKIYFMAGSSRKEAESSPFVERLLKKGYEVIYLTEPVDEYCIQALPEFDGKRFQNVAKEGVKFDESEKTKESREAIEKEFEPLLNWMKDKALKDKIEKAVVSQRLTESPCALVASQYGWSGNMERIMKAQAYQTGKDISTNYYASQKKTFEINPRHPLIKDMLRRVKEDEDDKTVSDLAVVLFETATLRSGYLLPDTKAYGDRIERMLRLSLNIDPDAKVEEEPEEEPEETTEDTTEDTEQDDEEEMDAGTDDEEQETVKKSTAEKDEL

Heat shock protein HSP90 [4] = molecular target: T1, Heat shock protein HSP90; assay: Upregulation of Hsp70 in SKOV3 cells; assay type: functional, cell-based; settings: sk-ov-3
Heat shock protein HSP90 [5] = molecular target: T1, Heat shock protein HSP90; assay: Upregulation of Hsp70 in SKBR3 cells; assay type: functional, cell-based; settings: sk-br-3

| SMILES | EC50 (Heat shock protein HSP90 [1]) | EC50 (Heat shock protein HSP90 [2]) | EC50 (Heat shock protein HSP90 [3]) | GI50 (SK-BR-3) | GI50 (SK-OV-3) | EC50 (Endoplasmin) | EC50 (Heat shock protein HSP90 [4]) | EC50 (Heat shock protein HSP90 [5]) |
| --- | --- | --- | --- | --- | --- | --- | --- | --- |
| C=CCNc1c(O)cc2c(O)c1C[C@@H](C)C[C@H](OC)[C@H](O)[C@@H](C)/C=C(\C)[C@H](OC(N)=O)[C@@H](OC)/C=C\C=C(/C)C(=O)N2.Cl [RETASPIMYCIN HYDROCHLORIDE] | 0.02 µM | 0.063 µM | 0.027 µM | 0.022 µM | 0.052 µM | 0.119 µM | 0.016 µM |  |
| Nc1ncnc2c1ncn2[C@@H]1O[C@H](COP(=O)(O)OP(=O)(O)O)[C@@H](O)[C@H]1O [ADENOSINE DIPHOSPHATE] |  | 87 µM |  |  |  | 21 µM |  |  |
| C=CCN1C(=O)COc2cc3c(O)c(c21)C[C@@H](C)C[C@H](OC)[C@H](O)[C@@H](C)/C=C(\C)[C@H](OC(N)=O)[C@@H](OC)/C=C\C=C(/C)C(=O)N3 | 0.19 µM | 0.541 µM | 0.415 µM | 0.739 µM | 0.726 µM |  | 1.005 µM | 0.311 µM |
| C=CCNC1=C2C[C@@H](C)C[C@H](OC)[C@H](O)[C@@H](C)/C=C(\C)[C@H](OC(N)=O)[C@@H](OC)/C=C\C=C(/C)C(=O)NC(=CC1=O)C2=O [TANESPIMYCIN] |  |  |  | 0.017 µM | 0.015 µM | 0.124 µM |  |  |
| CO[C@H]1/C=C\C=C(/C)C(=O)NC2=CC(=O)C(NC[C@H](O)CO)=C(C[C@@H](C)C[C@H](OC)[C@H](O)[C@@H](C)/C=C(\C)[C@@H]1OC(N)=O)C2=O | 0.141 µM | 0.066 µM | 4.585 µM | 0.724 µM | 2.02 µM | 0.072 µM | 0.853 µM | 0.14 µM |
| CO[C@H]1/C=C\C=C(/C)C(=O)Nc2cc(O)c(NC[C@H](O)CO)c(c2O)C[C@@H](C)C[C@H](OC)[C@H](O)[C@@H](C)/C=C(\C)[C@@H]1OC(N)=O.Cl | 0.321 µM | 0.091 µM | 0.756 µM | 0.832 µM | 1.11 µM | 0.131 µM | > 10 µM | 0.102 µM |
| C=CCNc1c(O)cc2nc3oc2c1C[C@@H](C)C[C@H](OC)[C@H](O)[C@@H](C)/C=C(\C)[C@H](OC(N)=O)[C@@H](OC)/C=C\C=C\3C.Cl | 0.585 µM | > 10 µM | 0.435 µM | 1.78 µM | 0.371 µM | > 10 µM | 3.229 µM |  |
| CO[C@H]1/C=C\C=C(/C)C(=O)Nc2cc(O)c(N)c(c2O)C[C@@H](C)C[C@H](OC)[C@H](O)[C@@H](C)/C=C(\C)[C@@H]1OC(N)=O.Cl |  | 0.034 µM | 0.031 µM | 0.05 µM | 0.017 µM | 0.048 µM | 0.01 µM | 0.058 µM |
| C=CCn1c(=O)oc2cc3c(O)c(c21)C[C@@H](C)C[C@H](OC)[C@H](O)[C@@H](C)/C=C(\C)[C@H](OC(N)=O)[C@@H](OC)/C=C\C=C(/C)C(=O)N3 | 1.046 µM | 0.603 µM | 0.742 µM | 0.583 µM | 1.24 µM |  | 2.283 µM | 0.384 µM |
| Nc1ncnc2c1ncn2[C@@H]1O[C@H](COP(=O)(O)OP(=O)(O)OP(=O)(O)O)[C@@H](O)[C@H]1O [ADENOSINE TRIPHOSPHATE] |  | 1500 µM |  |  |  | 19 µM |  |  |
| CO[C@H]1/C=C\C=C(/C)C(=O)NC2=CC(=O)C(N)=C(C[C@@H](C)C[C@H](OC)[C@H](O)[C@@H](C)/C=C(\C)[C@@H]1OC(N)=O)C2=O | 0.008 µM | 0.034 µM | 0.053 µM | 0.025 µM | 0.014 µM | 0.048 µM | 0.006 µM | 0.017 µM |
| CO[C@H]1/C=C\C=C(/C)C(=O)NC2=CC(=O)C(NCCN(C)C)=C(C[C@@H](C)C[C@H](OC)[C@H](O)[C@@H](C)/C=C(\C)[C@@H]1OC(N)=O)C2=O [ALVESPIMYCIN] |  |  |  | 0.029 µM | 0.032 µM | 0.065 µM |  |  |
